Measured values as given in ChEMBL document CHEMBL1146629, “Synthesis and evaluation of phosphoramidate amino acid-based inhibitors of sialyltransferases” (Bioorg Med Chem Lett, 2003).

Experiments:
[1] = biological target: T1, CMP-N-acetylneuraminate-beta-1,4-galactoside alpha-2,3-sialyltransferase (Rattus norvegicus, UniProt Q02734); assay: Inhibitory activity evaluated against alpha-2,3-sialyltransferase from rat liver
T1 sequence (Q02734 whole entry): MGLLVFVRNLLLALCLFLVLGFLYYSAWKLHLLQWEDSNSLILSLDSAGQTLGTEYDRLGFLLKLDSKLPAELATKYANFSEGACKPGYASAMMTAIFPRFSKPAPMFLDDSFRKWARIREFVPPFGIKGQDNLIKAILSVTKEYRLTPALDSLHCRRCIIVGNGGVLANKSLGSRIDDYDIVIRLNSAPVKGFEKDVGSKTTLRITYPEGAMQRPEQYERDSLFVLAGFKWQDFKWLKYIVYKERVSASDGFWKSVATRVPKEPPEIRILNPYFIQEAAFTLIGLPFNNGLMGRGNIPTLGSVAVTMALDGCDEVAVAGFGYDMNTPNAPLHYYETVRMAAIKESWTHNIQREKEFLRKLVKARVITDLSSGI

[2] = biological target: T2, Beta-galactoside alpha-2,6-sialyltransferase 1 (Rattus norvegicus, UniProt P13721); assay: Inhibitory activity evaluated against alpha-2,6-sialyltransferase from rat liver
T2 sequence (P13721 whole entry): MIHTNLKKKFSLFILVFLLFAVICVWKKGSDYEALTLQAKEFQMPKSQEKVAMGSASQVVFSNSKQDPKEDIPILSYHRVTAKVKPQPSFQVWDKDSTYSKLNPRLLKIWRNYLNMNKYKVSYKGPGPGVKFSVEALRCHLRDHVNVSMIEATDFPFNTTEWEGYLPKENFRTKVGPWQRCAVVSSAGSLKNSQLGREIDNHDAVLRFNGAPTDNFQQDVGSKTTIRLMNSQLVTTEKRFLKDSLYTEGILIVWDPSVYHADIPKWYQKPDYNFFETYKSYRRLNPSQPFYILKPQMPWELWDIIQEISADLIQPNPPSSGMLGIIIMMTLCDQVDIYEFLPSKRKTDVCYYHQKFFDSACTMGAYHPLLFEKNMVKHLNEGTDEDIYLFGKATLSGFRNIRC

Row | Ki [1] [µM] | Ki [2] [µM] | SMILES
1 | 5100 | 2200 | Nc1ccn(C2O[C@H](COP(=O)(O)N[C@@H](CC(=O)O)C(=O)O)C(O)[C@H]2O)c(=O)n1 (single isomer, unassigned)
2 | 710 | 370 | Nc1ccn(C2O[C@H](COP(=O)(O)OCC(=O)O)C(O)[C@H]2O)c(=O)n1 (single isomer, unassigned)

The next lines start with the molecule.

Row | SMILES | Ki [1] [µM] | Ki [2] [µM]
3 | C[C@H](NP(=O)(O)OC[C@H]1OC(n2ccc(N)nc2=O)[C@H](O)C1O)C(=O)O (single isomer, unassigned) | 2300 | 1700
4 | CC(C)C[C@H](NP(=O)(O)OC[C@H]1OC(n2ccc(N)nc2=O)[C@H](O)C1O)C(=O)O (single isomer, unassigned) | 900 | 2500
5 | Nc1ccn([C@@H]2O[C@H](COP(=O)(O)O)[C@@H](O)[C@H]2O)c(=O)n1 | 65 | 64
6 | Nc1ccn(C2O[C@H](COP(=O)(O)NCC(=O)O)C(O)[C@H]2O)c(=O)n1 (single isomer, unassigned) | 5300 | 2400
7 | Nc1ccn(C2O[C@H](COP(=O)(O)N[C@@H](Cc3c[nH]c4ccccc34)C(=O)O)C(O)[C@H]2O)c(=O)n1 (single isomer, unassigned) | 300 | 730
8 | Nc1ccn(C2O[C@H](COP(=O)(O)N[C@@H](Cc3ccccc3)C(=O)O)C(O)[C@H]2O)c(=O)n1 (single isomer, unassigned) | 2300 | 3800
